{
  "source": "patent US11786511B2",
  "about": "“Methods for increasing circulating mesenchymal stem cells” (University of Southern California, priority 2017, dated 2023)",
  "type_in_all_cases": "in vivo, C57BL/10ScSn-Dmd^mdx/J)",
  "key": {"[1]": {"system": "bone marrow MSCs (CD45 negative, Sca-1, CD29 & CD105 positive)", "assay": "Flow cytometry of bone marrow for CD45 negative cells triply positive for Sca-1, CD29 & CD105, mdx mouse model", "details": "mdx mice, 8 mg/kg oral once or twice daily, 6 weeks, vs vehicle treated mdx", "experimental": "(§1) In the mdx mouse model of DMD, 5 week-old wild-type (C57BL/10SnJ) and mdx (C57BL/10ScSn-Dmd^mdx/J) mice were treated for 6 weeks and necropsied. These mice were broken into 4 orally dosed groups: a wild-type group (n=5) dosed twice daily with vehicle, an mdx group (n=8) dosed twice daily with vehicle, an mdx group (n=8) dosed once daily with 8 mg/kg of Compound 7, and an mdx group (n=8) dosed twice daily with 8 mg/kg of Compound 7. The vehicle was a 1% β-cyclodextrin in ˜pH 3 citrate buffer and the treatment 1% β-cyclodextrin in ˜pH 3 citrate buffer with Compound 7. At necropsy, the femur bone marrow was isolated and peripheral blood was harvested. […] CFU-F colonies of ≥50 cells were counted after 8 days in culture. […]\n(§2) During the necropsy, the blood was collected by cardiac puncture with a 1 mL syringe fitted with a 22G needle, transferred into 2 ml K3E K3EDTA VACUETTE® tubes, and stored on ice. […] The cell solutions were counted with a Z1 Coulter Counter (Beckman Coulter) and resuspended at 5*10^6 cells/mL. […] The supernatant was then removed, re-suspend in 500 μL 10% neutral buffered formalin, covered with aluminum foil, and stored at 4° C. until analyzed. Samples were then read on a LSR II flow cytometer (BD Biosciences, San Jose, Calif.). Data was analyzed using FlowJo™ V 10.0.7r2."}, "[2]": {"system": "circulating MSCs (CD45 negative, Sca-1, CD29 & CD105 positive)", "assay": "Flow cytometry of peripheral blood for CD45 negative cells triply positive for Sca-1, CD29 & CD105, mdx mouse model", "details": "mdx mice, 8 mg/kg oral twice daily, 6 weeks, vs vehicle treated mdx and wild-type", "experimental": "as §1, §2"}, "[3]": {"system": "bone marrow MSCs", "assay": "Bone marrow CFU-F colony count after 6 weeks oral treatment in the mdx mouse model of DMD", "details": "mdx mice, vs vehicle treated mdx", "experimental": "In the mdx mouse model of DMD, 5 week-old wild-type (C57BL/10SnJ) and mdx (C57BL/10ScSn-Dmd^mdx/J) mice were treated for 6 weeks and necropsied. These mice were broken into 4 orally dosed groups: a wild-type group (n=5) dosed twice daily with vehicle, an mdx group (n=8) dosed twice daily with vehicle, an mdx group (n=8) dosed once daily with 8 mg/kg of Compound 7, and an mdx group (n=8) dosed twice daily with 8 mg/kg of Compound 7. The vehicle was a 1% β-cyclodextrin in ˜pH 3 citrate buffer and the treatment 1% β-cyclodextrin in ˜pH 3 citrate buffer with Compound 7. At necropsy, the femur bone marrow was isolated and peripheral blood was harvested. The bone marrow was cultured in Mesencult™ MSC Basal Medium (mouse) supplemented with Mesencult™ MSC Stimulatory Supplement (Stemcell Technologies). CFU-F colonies of ≥50 cells were counted after 8 days in culture.\nAt necropsy, the femurs were also collected in a 1.5 mL microcentrifuge tube containing ˜800 μL of sterile Dulbecco's phosphate-buffered saline (DPBS) with 2% fetal bovine serum (FBS) and 2× Penicillin (Pen) and 2× Streptomycin (Strep) (DPBS/2% FBS/2× Pen/Strep) and stored on ice. […] The cell solutions were counted with a Z1 Coulter Counter (Beckman Coulter) and resuspended at 5*10^6 cells/mL. […] On day 8, the colonies of ≥50 were counted by light microscopy."}},
  "note": "“Also recorded” adds a separate entry of the source.",
  "data": [
    {"smiles": "CCCCOC(=O)NS(=O)(=O)c1ccc(OC(F)(F)F)cc1-c1ccc(Cn2ccnc2)cn1", "note": "[Compound 7]", "values": [
      {"measurement": "Percentage of CD45 negative cells triply positive for Sca-1, CD29 & CD105 in bone marrow", "setting": "[1]", "value": "restored the percentage of these triply positive cells to levels comparable to non-dystrophic controls; also recorded: significantly increased"},
      {"measurement": "Percentage of CD45 negative cells triply positive for Sca-1, CD29 & CD105 in peripheral blood (circulating MSCs)", "setting": "[2]", "value": "significantly higher; also recorded: significant increase"},
      {"measurement": "Bone marrow MSC, CFU-F counts (colonies of ≥50 cells after 8 days in culture)", "setting": "[3]; 8 mg/kg oral once daily", "value": "significantly increased; also recorded: significant increase"},
      {"measurement": "Bone marrow MSC, CFU-F counts (colonies of ≥50 cells after 8 days in culture)", "setting": "[3]; 8 mg/kg oral twice daily", "value": "restoring levels comparable to the non-dystrophic controls; also recorded: significant increase"}
    ]}
  ]
}
